In brackets after ≈: the same amount, converted by molar mass.

One data set has as its system Apis mellifera. To be noted: acute; duration: 48 hours; dermal; mortality.
In a further data set the test system is Oncorhynchus mykiss. To be noted: chronic/long-term; duration: 96 days; growth.
In a further data set the test system is Lepomis macrochirus. As to conditions: acute; duration: 96 hours; mortality.
The next data set relates to Coturnix japonica. To be noted: acute; oral; diet; mortality.
The subject of data set [1] is Aphidius rhopalosiphi. As to conditions: not reported; reproduction.
The next data set relates to Cyprinodon variegatus. To be noted: acute; duration: 96 hours; mortality.
A further data set relates to Daphnia magna. To be noted: chronic/long-term; duration: 21 days; reproduction.
In a further data set the test system is Tagia sp. To be noted: acute; mortality.
In data set [2] the test system is Aphidius rhopalosiphi. Nature of the data set: LR50; higher = less toxic. To be noted: acute; duration: 48 hours; mortality.
Setting [3] is: reproduction developmental, reproduction.

With `COP(=S)(OC)SCN1C(=O)c2ccccc2C1=O` [Phosmet], the LD50 came to 57 mg/kg in the data set with Colinus virginianus (acute, oral, mortality); 113 mg/kg with Rattus norvegicus (acute, oral, mortality); 0.22 µg/piece in the data set on Apis mellifera. Further, the NOEC amounted to 7.5 mg/kg-day in the data set with Colinus virginianus (setting [3]), 0.0032 mg/L in the data set with Oncorhynchus mykiss and 0.00078 mg/L in the data set with Daphnia magna. In addition, the NOAEL – broadly, the highest tested level that showed no adverse finding – worked out at 4.5 mg/kg-day in the data set with Rattus norvegicus (acute, neurology); 1 mg/kg-day with Rattus norvegicus (setting [3]); 1.5 mg/kg-day in the data set with Rattus norvegicus (subchronic, duration: 13 weeks, neurology); 2 mg/kg-day in the data set on Rattus norvegicus (subchronic, duration: 90 days, oral, other). Moreover, the LC50 with Lepomis macrochirus turned out to be 0.0197 µg/mL (≈ 0.0621 µM); in the data set on Coturnix japonica, 406 mg/kg-day; in the data set on Cyprinodon variegatus, 0.17 µg/mL (≈ 0.536 µM); in the data set with Tagia sp., 104 mg/kg. This compound also registered an LEL in the data set on Aphidius rhopalosiphi [1] of 1.41 g/ha. In the data set with Aphidius rhopalosiphi [2], this compound showed an LR50 of 1.95 g/ha.
